In PubChem BioAssay AID256 (DTP/NCI, 2004) one finds T/C data, which are given here for 20 molecules.

Several values for one entry are separate records, joined by “and”; a condition that tells them apart may be missing. Equal values may be shown once. Toxic doses and inconclusive results are not listed. Starred links: 1 amine or outer side, 2 acyl side, 3 side chain; linkers in the order of their positions; H or OH if unused. Non-standard residues stand in square brackets, D forms with d. Residues, ends and D or L forms follow the SMILES beside them. *: point of attachment. X2 = CCC(=O)CC1CC(C)CC(C(=O)[*:2])N1[*:1]; X1 = CCCCCCCCC(C)C(=O)*; Aib = CC(C)(N)C(=O)O; X3 = CC(CN(C)CCO)N*

In this test the test system is CD2F1 mice, L1210 leukemia ip, survival T/C. The test is described as follows: NCI In Vivo Anticancer Drug Screen. Data for tumor model L1210 Leukemia (intraperitoneal) in CD2F1 (CDF1) mice. The settings on record: higher = longer survival. Put shortly:
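Mice carrying a transplanted tumor received test compound or vehicle alone. The value is the measurement in the treated group divided by that in the vehicle-treated control group.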

Where [1] appears, read: endpoint: mean survival time, dose: 100.0 mg/kg/injection, schedule: Q01DX009 (ip), vehicle: saline with Tween-80.
Where [2] appears, read: endpoint: mean survival time, dose: 200.0 mg/kg/injection, schedule: Q01DX009 (ip), vehicle: saline with Tween-80.
Setting [3] is: endpoint: mean survival time, dose: 100.0 mg/kg/injection, schedule: Q04DX003 (ip), vehicle: saline with Tween-80.
Setting [4] is: endpoint: mean survival time, dose: 200.0 mg/kg/injection, schedule: Q04DX003 (ip), vehicle: saline with Tween-80.
Setting [5] is: endpoint: mean survival time, dose: 400.0 mg/kg/injection, schedule: Q04DX003 (ip), vehicle: saline with Tween-80.
[6] abbreviates: endpoint: mean survival time, dose: 50.0 mg/kg/injection, schedule: Q01DX009 (ip), vehicle: saline with Tween-80.
Setting [7] is: endpoint: mean survival time, dose: 50.0 mg/kg/injection, schedule: Q04DX003 (ip), vehicle: saline with Tween-80.

`COc1cccc(CN2CCN(N)CC2)c1`: the T/C (endpoint: mean survival time, dose: 12.5 mg/kg/injection, schedule: Q01DX009 (ip), vehicle: Klucel (hydroxypropylcellulose) (HPC)) was 98 % of control; the T/C (endpoint: mean survival time, dose: 25.0 mg/kg/injection, schedule: Q01DX009 (ip), vehicle: Klucel (hydroxypropylcellulose) (HPC)) was 97 % of control; the T/C (endpoint: mean survival time, dose: 50.0 mg/kg/injection, schedule: Q01DX009 (ip), vehicle: Klucel (hydroxypropylcellulose) (HPC)) was 97 % of control; the T/C (endpoint: mean survival time, dose: 100.0 mg/kg/injection, schedule: Q01DX009 (ip), vehicle: Klucel (hydroxypropylcellulose) (HPC)) is 92 % of control; the T/C (endpoint: mean survival time, dose: 200.0 mg/kg/injection, schedule: Q01DX009 (ip), vehicle: Klucel (hydroxypropylcellulose) (HPC)) was 97 % of control.

With `Cc1ccc(S(=O)(=O)OCCCCOS(=O)(=O)c2ccc(C)cc2)cc1`, the T/C is 105 % of control (endpoint: mean survival time, dose: 100.0 mg/kg/injection, schedule: Q04DX003 (ip), vehicle: other); 94 % of control (endpoint: mean survival time, dose: 200.0 mg/kg/injection, schedule: Q04DX003 (ip), vehicle: other); 96 % of control (endpoint: mean survival time, dose: 400.0 mg/kg/injection, schedule: Q04DX003 (ip), vehicle: other).

As for `CNC(=O)Nc1ccc(C(=O)NC(C)C)cc1`, the T/C reads like this: (endpoint: mean survival time, dose: 22.0 mg/kg/injection, schedule: Q01DX009 (ip), vehicle: other) 93 % of control; (endpoint: mean survival time, dose: 33.0 mg/kg/injection, schedule: Q01DX009 (ip), vehicle: other) 102 % of control; (endpoint: mean survival time, dose: 50.0 mg/kg/injection, schedule: Q01DX009 (ip), vehicle: other) 94 % of control; (endpoint: mean survival time, dose: 100.0 mg/kg/injection, schedule: Q01DX009 (ip), vehicle: other) 95 % of control; (endpoint: mean survival time, dose: 200.0 mg/kg/injection, schedule: Q01DX009 (ip), vehicle: other) 91 % of control; (endpoint: mean survival time, dose: 400.0 mg/kg/injection, schedule: Q01DX009 (ip), vehicle: other) 96 % of control. In addition, the T/C (endpoint: mean survival time, dose: 800.0 mg/kg/injection, schedule: Q01DX009 (ip), vehicle: other) is 100 % of control.

As to `c1ccc(-c2cc(-c3ccccc3)n(-c3ccccc3)c2-c2ccccc2)cc1`, the T/C under setting [1] is 88 % of control; the T/C under setting [2] is 94 % of control; the T/C (endpoint: mean survival time, dose: 400.0 mg/kg/injection, schedule: Q01DX009 (ip), vehicle: saline with Tween-80) was 88 % of control.

In the case of `COc1ccc(OC)c(C2=CCCCCC2)c1`, the T/C is, setting by setting: under setting [3], 101 % of control; under setting [4], 102 % of control; under setting [5], 90 % of control.

Turning to `Cc1ccc(-n2c(N)cc(=O)[nH]c2=S)nc1`, the T/C under setting [3] is 95 % of control, the T/C under setting [4] is 100 % of control and the T/C under setting [5] was 95 % of control.

For `C=CCNC(=S)NCCCCCCCCCCCCCCCCCC`, the T/C runs as follows: (endpoint: mean survival time, dose: 12.5 mg/kg/injection, schedule: Q01DX009 (ip), vehicle: saline with Tween-80) 98 % of control; (endpoint: mean survival time, dose: 25.0 mg/kg/injection, schedule: Q01DX009 (ip), vehicle: saline with Tween-80) 98 % of control; under setting [6], 104 % of control.

On to `CCSC(CC(O)C(O)C(O)CO)n1cnc2c(Cl)ncnc21` (configuration not stated), for which the T/C was 100 % of control (endpoint: mean survival time, dose: 12.5 mg/kg/injection, schedule: Q01DX005 (ip), vehicle: water); 105 % of control (endpoint: mean survival time, dose: 25.0 mg/kg/injection, schedule: Q01DX005 (ip), vehicle: water); 102 % of control (endpoint: mean survival time, dose: 50.0 mg/kg/injection, schedule: Q01DX005 (ip), vehicle: water); 107 % of control (endpoint: mean survival time, dose: 100.0 mg/kg/injection, schedule: Q01DX005 (ip), vehicle: water); 104 % of control (endpoint: mean survival time, dose: 200.0 mg/kg/injection, schedule: Q01DX005 (ip), vehicle: water).

Take `O=[N+]([O-])O.[NH2-].[NH2-].[NH2-].[NH2-].[OH-].[OH-].[Pt+4].[Pt+4]`: the T/C (endpoint: mean survival time, dose: 2.5 mg/kg/injection, schedule: Q04DX003 (ip), vehicle: water) is 89 % of control; the T/C (endpoint: mean survival time, dose: 5.0 mg/kg/injection, schedule: Q04DX003 (ip), vehicle: water) was 97 % of control; the T/C (endpoint: median survival time, dose: 0.15 mg/kg/injection, schedule: Q04DX003 (ip), vehicle: water) is 97 % of control; the T/C (endpoint: median survival time, dose: 0.31 mg/kg/injection, schedule: Q04DX003 (ip), vehicle: water) is 97 % of control.

As to `O=C(O)c1ccccc1Nc1ccc(Br)cc1`, the T/C (endpoint: mean survival time, dose: 25.0 mg/kg/injection, schedule: Q04DX003 (ip), vehicle: saline with Tween-80) was 95 % of control; the T/C under setting [7] is 104 % of control; the T/C under setting [3] is 93 % of control and 112 % of control; the T/C under setting [4] was 98 % of control.

Consider `O=C(CCl)NCCCNC(=O)CCl`, for which the T/C under setting [3] was 105 % of control.

On to `ICC1CCC(CI)CC1` (configuration not stated), for which the T/C (endpoint: mean survival time, dose: 100.0 mg/kg/injection, schedule: Q01DX001 (ip), vehicle: saline) is 98 % of control; the T/C (endpoint: mean survival time, dose: 200.0 mg/kg/injection, schedule: Q01DX001 (ip), vehicle: saline) was 96 % of control; the T/C (endpoint: mean survival time, dose: 400.0 mg/kg/injection, schedule: Q01DX001 (ip), vehicle: saline) is 93 % of control.

Consider `O=[N+]([O-])c1ccccc1CSc1ncnc2nc[nH]c12`, for which the T/C was 110 % of control under setting [6]; 108 % of control under setting [7]; 121 % of control under setting [1]; 110 % of control under setting [3]; 108 % of control (endpoint: mean survival time, dose: 132.0 mg/kg/injection, schedule: Q04DX003 (ip), vehicle: saline with Tween-80); 158 % of control under setting [2].

Take `Cc1ccccc1C(C)(C#N)Nc1ccccc1` (configuration not stated): the T/C reads like this: under setting [3], 101 % of control; under setting [4], 103 % of control; under setting [5], 104 % of control.

Take `c1ccc(C2NC2c2ccccc2)cc1` (configuration not stated): the T/C is 100 % of control (endpoint: median survival time, dose: 50.0 mg/kg/injection, schedule: Q04DX002 (ip), vehicle: saline with Tween-80); 100 % of control (endpoint: median survival time, dose: 100.0 mg/kg/injection, schedule: Q04DX002 (ip), vehicle: saline with Tween-80); 100 % of control (endpoint: median survival time, dose: 200.0 mg/kg/injection, schedule: Q04DX002 (ip), vehicle: saline with Tween-80); 100 % of control (endpoint: median survival time, dose: 400.0 mg/kg/injection, schedule: Q04DX002 (ip), vehicle: saline with Tween-80).

As for `CN(Cc1cnc2nc(N)nc(N)c2n1)c1ccc(C(=O)NC(CCC(=O)OC(C)(C)C)C(=O)OC(C)(C)C)cc1` (configuration not stated), the T/C is, setting by setting: (endpoint: mean survival time, dose: 1.56 mg/kg/injection, schedule: Q01DX009 (ip), vehicle: saline with Tween-80) 112 % of control; (endpoint: mean survival time, dose: 3.12 mg/kg/injection, schedule: Q01DX009 (ip), vehicle: saline with Tween-80) 121 % of control; (endpoint: mean survival time, dose: 4.5 mg/kg/injection, schedule: Q01DX009 (ip), vehicle: saline with Tween-80) 111 % of control.

`CC(C)(C)C(=O)O`: the T/C runs as follows: (endpoint: mean survival time, dose: 100.0 mg/kg/injection, schedule: Q01DX009 (ip), vehicle: saline) 107 % of control; (endpoint: mean survival time, dose: 100.0 mg/kg/injection, schedule: Q04DX003 (ip), vehicle: saline) 89 % of control; (endpoint: mean survival time, dose: 200.0 mg/kg/injection, schedule: Q01DX009 (ip), vehicle: saline) 94 % of control; (endpoint: mean survival time, dose: 200.0 mg/kg/injection, schedule: Q04DX003 (ip), vehicle: saline) 92 % of control; (endpoint: mean survival time, dose: 400.0 mg/kg/injection, schedule: Q04DX003 (ip), vehicle: saline) 93 % of control.

As to `CCCCCCCCC(C)C(=O)N1CCCC1C(=O)N1C(CC(=O)CC)CC(C)CC1C(=O)NC(C)C(=O)NC(C)(C)C(=O)NC(C)(C)C(=O)NC(C(=O)NC(C)C(=O)NC(C)(C)C(=O)NC(C)(C)C(=O)NC(C)CN(C)CCO)C(C)CC` (configuration not stated) (X1-P[X2]A[Aib][Aib]IA[Aib][Aib]-X3; configuration not given here), the T/C is 110 % of control (endpoint: mean survival time, dose: 0.15 mg/kg/injection, schedule: Q01DX009 (ip), vehicle: Klucel (hydroxypropylcellulose) (HPC)); 111 % of control and 112 % of control (endpoint: mean survival time, dose: 0.31 mg/kg/injection, schedule: Q01DX009 (ip), vehicle: Klucel (hydroxypropylcellulose) (HPC)); 115 % of control and 104 % of control (endpoint: mean survival time, dose: 0.62 mg/kg/injection, schedule: Q01DX009 (ip), vehicle: Klucel (hydroxypropylcellulose) (HPC)); 122 % of control and 108 % of control (endpoint: mean survival time, dose: 1.25 mg/kg/injection, schedule: Q01DX009 (ip), vehicle: Klucel (hydroxypropylcellulose) (HPC)); 115 % of control and 117 % of control (endpoint: mean survival time, dose: 2.5 mg/kg/injection, schedule: Q01DX009 (ip), vehicle: Klucel (hydroxypropylcellulose) (HPC)); 103 % of control (endpoint: mean survival time, dose: 5.0 mg/kg/injection, schedule: Q01DX009 (ip), vehicle: Klucel (hydroxypropylcellulose) (HPC)).

Turning to `O=C1c2ccccc2C(=O)N1c1ccccc1-c1ccccc1`, the T/C runs as follows: under setting [3], 100 % of control; under setting [4], 92 % of control; under setting [5], 100 % of control.

For the molecule `CNC(=S)N(C)c1nc(C)cs1`, the T/C was 91 % of control (endpoint: mean survival time, dose: 100.0 mg/kg/injection, schedule: Q04DX002 (ip), vehicle: saline with Tween-80); 95 % of control (endpoint: mean survival time, dose: 200.0 mg/kg/injection, schedule: Q04DX002 (ip), vehicle: saline with Tween-80); 103 % of control (endpoint: mean survival time, dose: 400.0 mg/kg/injection, schedule: Q04DX002 (ip), vehicle: saline with Tween-80).
